These results are taken from patent publication US7462614B2, “Imidazotriazine compounds” (Smithkline Beecham Corporation, priority 2003, dated 2008).

The test system of assay [1] is lung (H460) tumor cell line. Briefly: Methylene Blue Growth Inhibition Assay, H460. Type of assay: cell-based. As to conditions: Homo sapiens, NCI-H460, 72 h; H460, 3 days; read-out: MeB Cell Line IC50. From the text: (§1) II. Methylene Blue Growth Inhibition Assay
(§2) Medium was removed by aspiration.

In assay [2] the test system is breast tumor (MCF7) cell line. Kind of assay: Methylene Blue Growth Inhibition Assay, MCF7. Type of assay: cell-based. As to conditions: Homo sapiens, 72 h; MCF7, 3 days; read-out: MeB Cell Line IC50.
Excerpt: as §1, §2

Assay [3] deals with colon (RKO) tumor cell line. Briefly: Methylene Blue Growth Inhibition Assay, RKO. Format: cell-based. Particulars: Homo sapiens, 72 h, 3 days, read-out: MeB Cell Line IC50.
Excerpt: as §1, §2

Assay [4] has as its system prostate (PC3) tumor cell line. Kind of assay: Methylene Blue Growth Inhibition Assay, PC3. Format: cell-based. Particulars: Homo sapiens, 72 h; PC3, 3 days; read-out: MeB Cell Line IC50.
Excerpt: as §1, §2

The test system of assay [5] is Normal Human foreskin fibroblasts (HFF). Kind of assay: Methylene Blue Growth Inhibition Assay, HFF. Format: cell-based. As to conditions: 72 h, 3 days, read-out: MeB Cell Line IC50.
Excerpt: as §1, §2

Assay [6] concerns colon (HCT116) tumor cell line. Kind of assay: Methylene Blue Growth Inhibition Assay, HCT116. As to conditions: Homo sapiens, HCT-116, 72 h; HCT116, 3 days; read-out: MeB Cell Line IC50. Type of assay: cell-based.
Excerpt: as §1, §2

Assay [7] has as its target T1, truncated human PLK1 (kinase domain) (Homo sapiens, UniProt P53350).
T1 construct: made in house; host or cells: baculovirus-infected T. ni insect cells
Kind of assay: Assay for Inhibition of PLK1 (33P SPA enzyme activity). As to conditions: 1 μM ATP, 2 nM enzyme; read-out: Ave pIC50 PLK Enzyme Inhibition (converted). Format: biochemical. The gist of the method: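 Enzyme is the 6×His-tagged PLK1 kinase domain, purified by Ni-chelate and gel filtration. Compounds added in DMSO, then enzyme; reaction stopped with EDTA/streptavidin SPA bead mix containing 60 μM ATP, read by 33P scintillation proximity.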

T1 sequence (P53350 21-346): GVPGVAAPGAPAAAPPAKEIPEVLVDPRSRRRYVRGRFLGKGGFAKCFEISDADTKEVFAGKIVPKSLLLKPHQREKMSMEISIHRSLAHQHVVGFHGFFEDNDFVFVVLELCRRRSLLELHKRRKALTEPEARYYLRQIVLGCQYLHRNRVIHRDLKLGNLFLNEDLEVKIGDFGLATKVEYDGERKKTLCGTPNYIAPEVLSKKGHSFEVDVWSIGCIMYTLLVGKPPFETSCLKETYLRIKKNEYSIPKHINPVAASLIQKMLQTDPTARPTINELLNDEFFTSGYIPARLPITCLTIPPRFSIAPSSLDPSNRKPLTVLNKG

For `COc1cc(Nc2ncc3c(C)nc(-c4cccc(C(F)(F)F)c4)n3n2)cc(OC)c1OC` [Example 5, 5-Methyl-7-[3-(trifluoromethyl)phenyl]-N-(3,4,5-trimethoxyphenyl)-imidazo[5,1-f][1,2,4]triazin-2-amine], the IC50 in assay [1], in assay [2], in assay [3], in assay [4], in assay [5] and in assay [6] was 1 to 10 µM each time.
Take `COc1cc(Nc2ncc3c(C)nc(-c4cccc(C#N)c4)n3n2)cc(OC)c1OC` [Example 8, 3-{5-Methyl-2-[(3,4,5-trimethoxyphenyl)amino]imidazo[5,1-f][1,2,4]triazin-7-yl}benzonitrile]: the IC50 in assay [1] was 10 to 30 µM; in assay [2], 10 to 30 µM; in assay [7], under 0.1 µM; in assay [3], 10 to 30 µM; in assay [4], 10 to 30 µM; in assay [5], 10 to 30 µM. In assay [6], the IC50 lay within 10 to 30 µM.
For the molecule `COc1cc(Nc2ncc3c(C)nc(-c4cccc(Br)c4)n3n2)cc(OC)c1OC` [Example 9, 7-(3-Bromophenyl)-5-methyl-N-(3,4,5-trimethoxyphenyl)imidazo-[5,1-f][1,2,4]triazin-2-amine], the IC50 in assay [1] is 1 to 10 µM; in assay [2] it was 1 to 10 µM; in assay [7], under 0.1 µM; in assay [3] it was 1 to 10 µM; in assay [4], 10 to 30 µM; in assay [5], 10 to 30 µM. In assay [6], the IC50 is 1 to 10 µM.
With `COc1cc(Nc2ncc3c(C)nc(-c4cccc(C(N)=O)c4)n3n2)cc(OC)c1OC` [Example 16, 3-{5-Methyl-2-[(3,4,5-trimethoxyphenyl)amino]imidazo[5,1-f][1,2,4]triazin-7-yl}benzamide], the IC50 was 10 to 30 µM in assay [1]; 10 to 30 µM in assay [2]; 0.1 to 10 µM in assay [7]; 10 to 30 µM in assay [3]; 10 to 30 µM in assay [4]; 10 to 30 µM in assay [5]. Moreover, the IC50 in assay [6] lay within 10 to 30 µM.
For `Cc1nc(-c2ccccc2)n2nc(Nc3cccc(CCO)c3)ncc12` [Example 19, 2-{3-[(5-Methyl-7-phenylimidazo[5,1-f][1,2,4]triazin-2-yl)amino]phenyl}ethanol], the IC50 in assay [1] is 1 to 10 µM; in assay [2], 1 to 10 µM; in assay [7], under 0.1 µM; in assay [3], 1 to 10 µM; in assay [4], 10 to 30 µM; in assay [5] it was 10 to 30 µM. The IC50 in assay [6] fell in the range of 1 to 10 µM.
Take `COc1cc(Nc2ncc3c(C)nc(-c4ccccc4O)n3n2)cc(OC)c1OC` [Example 22, 2-{5-Methyl-2-[(3,4,5-trimethoxyphenyl)amino]imidazo[5,1-f][1,2,4]triazin-7-yl}phenol]: the IC50 was 10 to 30 µM in assay [1]; 10 to 30 µM in assay [2]; 0.1 to 10 µM in assay [7]; 10 to 30 µM in assay [3]; 10 to 30 µM in assay [4]; 10 to 30 µM in assay [5]. Moreover, in assay [6], the IC50 lay in the range of 10 to 30 µM.
Take `COc1cc(Nc2ncc3c(C)nc(-c4ccc(C(F)(F)F)cc4)n3n2)cc(OC)c1OC` [Example 24, 5-Methyl-7-[4-(trifluoromethyl)phenyl]-N-(3,4,5-trimethoxy-phenyl)imidazo[5,1-f][1,2,4]triazin-2-amine]: the IC50 in assay [1] is 10 to 30 µM; in assay [2], 10 to 30 µM; in assay [7], 0.1 to 10 µM; in assay [3], 10 to 30 µM; in assay [4] it was 10 to 30 µM; in assay [5], 10 to 30 µM. In addition, the IC50 in assay [6] was in the range of 10 to 30 µM.
As for `Cc1nc(-c2cccc(C(F)(F)F)c2)n2nc(Nc3cccc(S(N)(=O)=O)c3)ncc12` [Example 41, 3-({5-Methyl-7-[3-(trifluoromethyl)phenyl]imidazo[5,1-f][1,2,4]triazin-2-yl}amino)benzenesulfonamide], the IC50 in assay [1] is 1 to 10 µM; in assay [2], 1 to 10 µM; in assay [7], 0.1 to 10 µM; in assay [3], 1 to 10 µM; in assay [4], 10 to 30 µM; in assay [5], 10 to 30 µM. The IC50 in assay [6] is 1 to 10 µM.
Regarding `COc1ccc(NC(C)=O)cc1Nc1ncc2c(C)nc(-c3cccc(C(F)(F)F)c3)n2n1` [Example 43, N-[4-Methoxy-3-({5-methyl-7-[3-(trifluoromethyl)phenyl]imidazo-[5,1-f][1,2,4]triazin-2-yl}amino)phenyl]acetamide], the IC50 is 1 to 10 µM in assay [1]; 1 to 10 µM in assay [2]; under 0.1 µM in assay [7]; 1 to 10 µM in assay [3]; 10 to 30 µM in assay [4]; 10 to 30 µM in assay [5]. Also, in assay [6], the IC50 was 1 to 10 µM.
As to `Cc1nc(-c2cccc(C(F)(F)F)c2)n2nc(Nc3cccc(CCO)c3)ncc12` [Example 44, 2-[3-({5-Methyl-7-[3-(trifluoromethyl)phenyl]imidazo[5,1-f][1,2,4]triazin-2-yl}amino)phenyl]ethanol], the IC50 is 1 to 10 µM in assay [1]; 10 to 30 µM in assay [2]; under 0.1 µM in assay [7]; 1 to 10 µM in assay [3]; 10 to 30 µM in assay [4]; 10 to 30 µM in assay [5]. Also, the IC50 in assay [6] lay within 1 to 10 µM.
Consider `CC(=O)Nc1ccc(Nc2ncc3c(C)nc(-c4cccc(C(F)(F)F)c4)n3n2)cc1` [Example 46, N-[4-({5-Methyl-7-[3-(trifluoromethyl)phenyl]imidazo[5,1-f][1,2,4]triazin-2-yl}amino)phenyl]acetamide], for which the IC50 in assay [1] is 10 to 30 µM; in assay [2] it was 1 to 10 µM; in assay [7], under 0.1 µM; in assay [3], 1 to 10 µM; in assay [4], 10 to 30 µM; in assay [5], 10 to 30 µM. Also, the IC50 in assay [6] lay within 1 to 10 µM.
Regarding `CC(=O)Nc1cccc(Nc2ncc3c(C)nc(-c4cccc(C(F)(F)F)c4)n3n2)c1` [Example 47, N-[3-({5-Methyl-7-[3-(trifluoromethyl)phenyl]imidazo[5,1-f][1,2,4]triazin-2-yl}amino)phenyl]acetamide], the IC50 was 10 to 30 µM in assay [1]; 10 to 30 µM in assay [2]; under 0.1 µM in assay [7]; 10 to 30 µM in assay [3]; 10 to 30 µM in assay [4]; 10 to 30 µM in assay [5]. Further, the IC50 in assay [6] lay within 1 to 10 µM.
As to `Cc1nc(-c2ccccc2)n2nc(NC3CCOCC3)ncc12` [Example 101, 5-Methyl-7-phenyl-N-(tetrahydro-2H-pyran-4-yl)imidazo[5,1-f][1,2,4]triazin-2-amine], the IC50 in assay [7] is over 10 µM.
Regarding `Cc1nc(-c2ccccc2)n2nc(Nc3ccc(OCCN4CCOCC4)cc3)ncc12` [Example 102, 5-Methyl-N-(4-{[2-(4-morpholinyl)ethyl]oxy}phenyl)-7-phenylimidazo[5,1-f][1,2,4]triazin-2-amine], in assay [7], the IC50 is 0.1 to 10 µM.
Regarding `COc1ccc(Nc2ncc3c(C)nc(-c4ccccc4)n3n2)cc1` [Example 104, 5-Methyl-N-[4-(methyloxy)phenyl]-7-phenylimidazo[5,1-f][1,2,4]triazin-2-amine], in assay [7], the IC50 is 0.1 to 10 µM.
Same read-out and setting: the value for `Cc1nc(-c2ccccc2)n2nc(Nc3ccccc3)ncc12` [Example 105, 5-Methyl-N,7-diphenylimidazo[5,1-f][1,2,4]triazin-2-amine] was 0.1 to 10 µM; that for `COc1cccc(Nc2ncc3c(C)nc(-c4ccccc4)n3n2)c1` [Example 106, 5-Methyl-N-[3-(methyloxy)phenyl]-7-phenylimidazo[5,1-f][1,2,4]triazin-2-amine] was 0.1 to 10 µM.
